# Test results as given in patent publication US9802962B2, “Tricyclic pyrone compounds reduce amyloid beta aggregates” (priority 2013, dated 2017).
# Columns and labels:
# MC65 neuroblastoma cells = assay: MC65 protection assay; format: cell-based; settings: protection of MC65 cells from death caused by intracellular Aβ; for EC50: read-out: effective concentrations for 50% cell survival (EC50)
# Experimental: Employing medium-throughput cell-based MC65 protection assay to screen over one hundred TP compounds, seven TP compounds that protect MC65 neuroblastoma cells from death caused by intracellular Aβ have been identified. […] The EC50 values for CP2, TP70, and TP101 are 120, 80, and 70 nM, respectively.
# ACAT = ACAT inhibition; format: biochemical; settings: read-out: half maximal inhibitory concentration (IC50), ACAT
# Text: (§1) It has been reported that an induction of cholesterol efflux resulting in a reduction of Aβ formation/deposition in vitro and in vivo (Kim, et al., J Alzheimers Dis, 2009, 16:121-131). For additional Detail, see the attached manuscript entitled, “Inhibition of Acyl-CoA: Cholesterol Acyltransferase (ACAT), Overexpression of Cholesterol Transporter Gene, and Protection of Amyloid β (Aβ) Oligomers-Induced Neuronal Cell Death by Tricylic Pyrone Molecules” which is incorporated herein.
# [1] = system: ABCA1 cholesterol transporter gene; assay: Increase of ABCA1 cholesterol transporter gene; format: cell-based
# Text: as §1
# [2] = log P by octanol/water partition; format: physicochemical
# [3] = Plasma and brain concentrations after i.v. administration in mice; format: in vivo
# Experimental: FIGS. 3A-3B. FIG. 3A. CP2 and TP70 plasma and brain concentrations following i.v. injection in mice (n=3). FIG. 3B. […] The drug concentration was determined using HPLC and mass spectrometry.
# HPLC/mass spectrometry were employed to quantify CP2 and TP70 in the plasma and brain after i.v. administration in mice. The CP2 concentration was 200-300 μM in the mouse brain between 0.5 and 2 h following 25 mg/kg i.v. administration (FIG. 3A). Similarly, TP70 concentration reached 190 μM in plasma at 5 min and 160 μM in brain at 2 h following 25 mg/Kg i.v. administration (FIGS. 3A and 3B).
# 5×FAD mice [4] = assay: In vivo efficacy in 5×FAD mice; settings: 5×FAD mice
# Experimental: FIGS. 6A-6E. 2-month-old 5×FAD mice were treated with TP70 or vehicle for 6 weeks as described in the text. Four cortical sections evenly distributed through the cerebrum were taken from one hemisphere of each mouse (6 mice in each treatment group) and fluorescently stained with the amyloid dye FSB (blue) and the nuclear dye propidium iodide (PI, red). A: Representative sections that show the PI stain. B: Representative sections that only show the FSB stain. C: Fluorescent staining was objectively quantified by LSC. […] E: A representative Western blot containing the soluble fractions of three mice of each group was analyzed for soluble Aβ dimer (see ref 59 for the method).
# Although the mechanism of neuron loss in Alzheimer's disease (AD) remains elusive, it is associated with cerebral accumulation of Aβ42. The 5×FAD mouse model of amyloid deposition expresses five familial AD (FAD) mutations that are additive in driving Aβ42 overproduction.
# 5×FAD mice [5] = settings: reported in Hong, et al., J Neurochem, 2009; cited from earlier work
smiles,measurement,setting,value
Cc1cc2c(c(=O)o1)C=C1CCC(C(C)CNCc3c[nH]cn3)CC1O2 (centres unmarked) [TP36],EC50 values (in words),MC65 neuroblastoma cells,nanomolar range
Cc1cc2c(c(=O)o1)C=C1CCC(C(C)CNCc3ccc(CO)cc3)CC1O2 (centres unmarked) [TP82],EC50 values (in words),MC65 neuroblastoma cells,nanomolar range
CC(=O)OCCc1cc2c(c(=O)o1)C=C1CC[C@H](C(C)Cn3cnc(N)c4ncnc3-4)C[C@@H]1O2 (some centres unmarked) [TP4],EC50 values (in words),MC65 neuroblastoma cells,nanomolar range
Cc1cc2c(c(=O)o1)C=C1CCC(C(C)CNCc3ccc(O)c(F)c3)CC1O2 (centres unmarked) [TP101],EC50 values (in words),MC65 neuroblastoma cells,nanomolar range
same,EC50,MC65 neuroblastoma cells,70 nM
Cc1cc2c(c(=O)o1)C=C1CC[C@H](C(C)Cn3cnc(N)c4ncnc3-4)C[C@@H]1O2 (some centres unmarked) [CP2],EC50,MC65 neuroblastoma cells,120 nM
same,IC50,ACAT,1200 nM
same,EC50,[1],900 nM
same,log P,[2],2.20
same,CNS penetration,"[3]; i.v., mice",good CNS penetration
same,brain concentration,"[3]; mouse brain, between 0.5 and 2 h, 25 mg/kg i.v.",200 to 300 µM
same,cerebral amyloid load,5×FAD mice [4],substantially reduce
same,drug toxicity during the course of treatment,5×FAD mice [4],no apparent drug toxicity
same,"histopathology, hematological counts, and blood chemistry at necropsy",5×FAD mice [4],No abnormalities
same,levels of toxic Aβ dimers,5×FAD mice [4],substantially reduce
same,soluble and insoluble Aβ aggregates in vivo,5×FAD mice [5],reduce soluble and insoluble Aβ aggregates in vivo
Cc1cc2c(c(=O)o1)C=C1CCC(C(C)CNCc3ccc(O)c4ccccc34)CC1O2 (centres unmarked) [TP54],EC50 values (in words),MC65 neuroblastoma cells,nanomolar range
